This passage reports IC50 results from patent US8592456B2 (4SC Discovery GmbH, priority 2011, dated 2013).

The experiment relates to PBMC (T cell proliferation). The experiment in a line: T cell proliferation assay, PHA-stimulated human PBMC (BrdU ELISA). The experiment is classed as cell-based. To be noted: human PBMC, 2 μg/ml PHA, 48 hours, BrdU; read-out: D: IC50 (Tcell proliferation). The method, then:
Cell proliferation was analysed using the BrdU based cell proliferation ELISA from Roche (Mannheim, Germany) according to the manufacturer's instructions.
T Cell Proliferation Assay
Peripheral blood mononuclear cells (PBMC) from healthy human donors were isolated by centrifugation over Ficoll-Hypaque (Sigma-Aldrich, Germany) according to manufacturer's instructions. Purified PBMC were washed twice with PBS and resuspended in RPMI1640 culture medium supplemented with 10% dialyzed heat inactivated fetal calf serum, 1.5 mM L-glutamine, 100 U penicillin/ml, and […] (all from PAN Biotech, Aidenbach, Germany). For stimulation, PBMC were seeded at 1×10^5 cells/well, activated with 2 μg/ml phytohaemagglutinin (PHA, Sigma) and incubated with the test compound. After 48 hours proliferation was measured using the BrdU based cell proliferation ELISA from Roche (Mannheim, Germany) according to the manual.
(In general: Incorporation of labelled thymidine or its analogues reports DNA synthesis.)
As for `COC(=O)c1c(-c2c(F)cccc2Cl)noc1-c1cnn(-c2c(F)c(F)cc(F)c2F)c1C(F)(F)F` [Example 47, methyl 3-(2-chloro-6-fluorophenyl)-5-(1-(2,3,5,6-tetrafluorophenyl)-5-(trifluoromethyl)-1H-pyrazol-4-yl)isoxale-4-carboxylate], the IC50 was 100 to 1000 nM.

Consider `COC(=O)c1c(-c2c(F)cccc2Cl)noc1-c1cnn(-c2ccccc2)c1C(F)(F)F` [Example 48, methyl 3-(2-chloro-6-fluorophenyl)-5-(1-phenyl-5-(trifluomethyl)1H-pyrazol-4-yl)isoxazole-4-carboxylate], for which the IC50 is 10 to 100 nM. As for `N#Cc1c(-c2c(F)cccc2Cl)noc1-c1cnn(-c2cccc(Cl)c2)c1C(F)(F)F` [Example 49, 3-(2-chloro-6-fluorophenyl)-5-(1-(3-chlorophenyl)-5-(trifluoromethyl)-1H-pyrazol-4-yl)isoxazole-4-carbonitrile], the IC50 was in the range of 100 to 1000 nM. On to `COC(=O)c1c(-c2c(F)cccc2Cl)noc1-c1cnn(-c2cc(F)cc(F)c2)c1C(F)(F)F` [Example 50, methyl 3-(2-chloro-6-fluorophenyl)-5-(1-(3,5-difluorophenyl)-5-(trifluoromethyl)-1H-pyrazol-4-yl)isoxazole-4-carboxylate], for which the IC50 is below 10 nM. Turning to `COC(=O)c1c(-c2ccccc2)noc1-c1cnn(-c2cccc(F)c2)c1C(F)(F)F` [Example 51, methyl 5-(1-(3-fluorophenyl)-5-(trifluoromethyl)-1H-pyrazol-4-yl)-3-phenylisoxazole-4-carboxylate], the IC50 lay in the range of 1000 to 10000 nM. For `COC(=O)c1c(-c2c(F)cccc2Cl)noc1-c1cnn(-c2nc(-c3ccc(F)cc3)cs2)c1C(F)(F)F` [Example 54, methyl 3-(2-chloro-6-fluorophenyl)-5-(1-(4-(4-fluorophenyl)thiazol-2-yl)-5-(trifluoromethyl)-1H-pyrazol-4-yl)isoxazole-4-carboxylate] the value was 1000 to 10000 nM.

Regarding `CNC(=O)c1c(-c2c(F)cccc2Cl)noc1-c1cnn(-c2ccc(F)cc2)c1C(F)(F)F` [Example 55, 3-(2-chloro-6-fluorophenyl)-5-(1-(4-fluorophenyl)-5-(trifluoromethyl)-1H-pyrazol-4-yl)-N-methylisoxazole-4-carboxamide], the IC50 lay within 100 to 1000 nM. Consider `CNC(=O)c1c(-c2c(F)cccc2Cl)noc1-c1cnn(-c2ccc(F)cc2F)c1C(F)(F)F` [Example 57, 3-(2-chloro-6-fluorophenyl)-5-(1-(2,4-difluorophenyl)-5-(trifluoromethyl)-1H-pyrazol-4-yl)-N-methylisoxazole-4-carboxamide], for which the IC50 lay in the range of 1000 to 10000 nM. The same measure for `CNC(=O)c1c(-c2c(F)cccc2Cl)noc1-c1cnn(-c2ccccc2)c1C(F)(F)F` [Example 59, 3-(2-chloro-6-fluorophenyl)-N-methyl-5-(1-phenyl-5-(trifluoromethyl)-1H-pyrazol-4-yl)isoxazole-4-carboxamide]: 100 to 1000 nM. In the case of `COC(=O)c1c(-c2ccccc2)noc1-c1cnn(-c2ccccc2F)c1C(F)(F)F` [Example 61, methyl 5-(1-(2-fluorophenyl)-5-(trifluoromethyl)-1H-pyrazol-4-yl)-3-phenylisoxazole-4-carboxylate], the IC50 was 1000 to 10000 nM.

As to `CNC(=O)c1c(-c2c(F)cccc2Cl)noc1-c1cnn(-c2cccc(F)c2)c1C(F)(F)F` [Example 62, 3-(2-chloro-6-fluorophenyl)-5-(1-(3-fluorophenyl)-5-(trifluoromethyl)-1H-pyrazol-4-yl)-N-methylisoxazole-4-carboxamide], the IC50 lay in the range of 10 to 100 nM. The same measure for `CON(C)C(=O)c1c(-c2c(F)cccc2Cl)noc1-c1cnn(-c2cccc(Cl)c2)c1C(F)(F)F` [Example 63, 3-(2-chloro-6-fluorophenyl)-5-(1-(3-chlorophenyl)-5-(trifluoromethyl)-1H-pyrazol-4-yl)-N-methoxy-N-methylisoxazole-4-carboxamide]: 100 to 1000 nM.
